From US20250382344A1, “Soluble GLP1/GIP/NPY2 Receptor Triple Agonists” (Boehringer Ingelheim International GmH, priority 2024, published 2025)
Like-named read-outs stand apart in the source and are kept apart here.

Key:
[1] = molecular target: T1, hGIPR (Homo sapiens, UniProt P48546); assay: hGIPR CreLuc assay in 0.5% and 100% plasma (CHO CRE-luciferase reporter cells); type: cell-based
T1 construct: expressed in transfected cells; host or cells: CHO CRE-luciferase reporter cells
T1 sequence (P48546 22-466): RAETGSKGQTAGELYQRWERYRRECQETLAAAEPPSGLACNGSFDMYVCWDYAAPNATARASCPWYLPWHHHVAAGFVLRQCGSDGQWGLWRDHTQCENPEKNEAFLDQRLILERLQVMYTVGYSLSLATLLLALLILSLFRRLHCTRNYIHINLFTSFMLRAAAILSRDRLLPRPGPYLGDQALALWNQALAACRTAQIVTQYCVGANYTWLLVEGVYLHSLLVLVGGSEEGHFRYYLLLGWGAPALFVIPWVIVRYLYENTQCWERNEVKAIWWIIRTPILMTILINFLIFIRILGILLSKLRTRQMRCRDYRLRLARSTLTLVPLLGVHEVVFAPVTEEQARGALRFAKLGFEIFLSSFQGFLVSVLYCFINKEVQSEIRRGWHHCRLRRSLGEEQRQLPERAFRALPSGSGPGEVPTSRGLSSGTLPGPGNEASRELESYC

[2] = Solubility in 0.1 M phosphate buffer at pH 7; type: physicochemical; conditions: 0.1 M phosphate buffer at pH 7, 10 mg/mL final peptide concentration, shaking 2 hours at room temperature, peptides as TFA-salts; measured sample pH 6.5-7.0
[3] = 0.5% human plasma, read-out: hGIPR 0.5% hP
[4] = 100% human plasma, read-out: hGIPR 100% hP

Row | SMILES | EC50 [1, 3] [nM] | EC50 [1, 4] [nM] | solubility at 2 h [2] [µg/mL] | EC50 ([1]; hGIPR 0.5% hP (nM), 0.5% human plasma) [nM] | EC50 ([1]; hGIPR 100% hP (nM), 100% human plasma) [nM]
1 | CC[C@H](C)[C@H](NC(=O)[C@H](CC(C)C)NC(=O)[C@H](Cc1c[nH]cn1)NC(=O)[C@H](CCCNC(=N)N)NC(=O)[C@@H](NC(=O)[C@H](Cc1ccccc1)NC(=O)[C@H](C)NC(=O)C(C)(C)NC(=O)[C@H](CCC(N)=O)NC(=O)[C@H](C)NC(=O)[C@H](CCC(N)=O)NC(=O)[C@H](CCCCN)NC(=O)[C@H](CCC(=O)O)NC(=O)[C@H](CC(C)C)NC(=O)C(C)(C)NC(=O)[C@@H](NC(=O)[C@H](CO)NC(=O)[C@H](Cc1ccc(O)cc1)NC(=O)[C@H](CC(=O)O)NC(=O)[C@H](CO)NC(=O)[C@@H](NC(=O)[C@H](Cc1ccccc1)NC(=O)[C@@H](NC(=O)CNC(=O)[C@H](CCC(=O)O)NC(=O)C(C)(C)NC(=O)[C@@H](N)Cc1ccc(O)cc1)[C@@H](C)O)[C@@H](C)O)[C@@H](C)CC)C(C)C)C(=O)N[C@@H](CC(N)=O)C(=O)N[C@@H](CCCCNC(=O)[C@@H](N)CCCCNC(=O)[C@@H](N)CCCCNC(=O)CC[C@H](NC(=O)CC[C@H](NC(=O)CC[C@H](NC(=O)CC[C@H](NC(=O)CC[C@H](NC(=O)CC[C@H](NC(=O)CCCCCCCCCCCCCCCCC(=O)O)C(=O)O)C(=O)O)C(=O)O)C(=O)O)C(=O)O)C(=O)O)C(=O)NC(C)(C)C(=O)N[C@H](C(=O)N[C@@H](CCCNC(=N)N)C(=O)N[C@@H](CCC(N)=O)C(=O)N[C@@H](CCCNC(=N)N)C(=O)N[C@@H](Cc1ccc(O)cc1)C(N)=O)[C@@H](C)O [Compound 11, Y-Aib-E-G-T-F-T-S-D-Y-S-I-Aib-L-E-K-Q-A-Q-Aib-A-F-V-R-H-L-I-N-K(1,3)-Aib-T-R-Q-R-Y-NH2.C18DA-gGlu-gGlu-gGlu-gGlu-gGlu-gGlu-eLys-eLys(1,2)] | 0.3 | 8 | 800 | – | –
2 | CC[C@H](C)[C@H](NC(=O)[C@H](CC(C)C)NC(=O)[C@H](Cc1c[nH]cn1)NC(=O)[C@H](CCCNC(=N)N)NC(=O)[C@@H](NC(=O)[C@H](Cc1ccccc1)NC(=O)[C@H](C)NC(=O)C(C)(C)NC(=O)[C@H](CCC(N)=O)NC(=O)[C@H](C)NC(=O)[C@H](CCC(N)=O)NC(=O)[C@H](CCCCN)NC(=O)[C@H](CCC(=O)O)NC(=O)[C@H](CC(C)C)NC(=O)C(C)(C)NC(=O)[C@@H](NC(=O)[C@H](CO)NC(=O)[C@H](Cc1ccc(O)cc1)NC(=O)[C@H](CC(=O)O)NC(=O)[C@H](CO)NC(=O)[C@@H](NC(=O)[C@H](Cc1ccccc1)NC(=O)[C@@H](NC(=O)CNC(=O)[C@H](CCC(=O)O)NC(=O)C(C)(C)NC(=O)[C@@H](N)Cc1ccc(O)cc1)[C@@H](C)O)[C@@H](C)O)[C@@H](C)CC)C(C)C)C(=O)N[C@@H](CC(N)=O)C(=O)N[C@@H](CCCCNC(=O)CC[C@H](NC(=O)CC[C@H](NC(=O)CC[C@H](NC(=O)CC[C@H](NC(=O)CC[C@H](NC(=O)CC[C@H](NC(=O)[C@H]1CC[C@H](CNC(=O)CCCCCCCCCCCCCCCCCCC(=O)O)CC1)C(=O)O)C(=O)O)C(=O)O)C(=O)O)C(=O)O)C(=O)O)C(=O)NC(C)(C)C(=O)N[C@H](C(=O)N[C@@H](CCCNC(=N)N)C(=O)N[C@@H](CCC(N)=O)C(=O)N[C@@H](CCCNC(=N)N)C(=O)N[C@@H](Cc1ccc(O)cc1)C(N)=O)[C@@H](C)O [Compound 133, Y-Aib-E-G-T-F-T-S-D-Y-S-I-Aib-L-E-K-Q-A-Q-Aib-A-F-V-R-H-L-I-N-K(1,3)-Aib-T-R-Q-R-Y-NH2.C20DA-TRX-gGlu-gGlu-gGlu-gGlu-gGlu-gGlu(1,2)] | 0.3 | 3.4 | 4200 | – | –
3 | CC[C@H](C)[C@H](NC(=O)[C@H](CC(C)C)NC(=O)[C@H](Cc1c[nH]cn1)NC(=O)[C@H](CCCNC(=N)N)NC(=O)[C@@H](NC(=O)[C@H](Cc1ccccc1)NC(=O)[C@H](C)NC(=O)C(C)(C)NC(=O)[C@H](CCC(N)=O)NC(=O)[C@H](C)NC(=O)[C@H](C)NC(=O)[C@H](CCCCN)NC(=O)[C@H](CCC(=O)O)NC(=O)[C@H](CC(C)C)NC(=O)C(C)(C)NC(=O)[C@@H](NC(=O)[C@H](CO)NC(=O)[C@H](Cc1ccc(O)cc1)NC(=O)[C@H](CC(=O)O)NC(=O)[C@H](CO)NC(=O)[C@@H](NC(=O)[C@H](Cc1ccccc1)NC(=O)[C@@H](NC(=O)CNC(=O)[C@H](CCC(=O)O)NC(=O)C(C)(C)NC(=O)[C@@H](N)Cc1ccc(O)cc1)[C@@H](C)O)[C@@H](C)O)[C@@H](C)CC)C(C)C)C(=O)N[C@@H](CC(N)=O)C(=O)N[C@@H](CCCCNC(=O)[C@@H](N)CCCCNC(=O)CC[C@H](NC(=O)CC[C@H](NC(=O)CC[C@H](NC(=O)CC[C@H](NC(=O)CC[C@H](NC(=O)CC[C@H](NC(=O)CCCCCCCCCCCCCCCCCCC(=O)O)C(=O)O)C(=O)O)C(=O)O)C(=O)O)C(=O)O)C(=O)O)C(=O)NC(C)(C)C(=O)N[C@H](C(=O)N[C@@H](CCCNC(=N)N)C(=O)N[C@@H](CCC(N)=O)C(=O)N[C@@H](CCCNC(=N)N)C(=O)N[C@@H](Cc1ccc(O)cc1)C(N)=O)[C@@H](C)O [Compound 4, Y-Aib-E-G-T-F-T-S-D-Y-S-I-Aib-L-E-K-A-A-Q-Aib-A-F-V-R-H-L-I-N-K(1,3)-Aib-T-R-Q-R-Y-NH2.C20DA-gGlu-gGlu-gGlu-gGlu-gGlu-gGlu-eLys(1,2)] | 0.3 | 11.5 | 10000 | – | –
4 | CC[C@H](C)[C@H](NC(=O)[C@H](CC(C)C)NC(=O)[C@H](Cc1c[nH]cn1)NC(=O)[C@H](CCCNC(=N)N)NC(=O)[C@@H](NC(=O)[C@H](Cc1ccccc1)NC(=O)[C@H](C)NC(=O)C(C)(C)NC(=O)[C@H](CCC(N)=O)NC(=O)[C@H](C)NC(=O)[C@H](CCC(N)=O)NC(=O)[C@H](CCCCN)NC(=O)[C@H](CCC(=O)O)NC(=O)[C@H](CC(C)C)NC(=O)C(C)(C)NC(=O)[C@@H](NC(=O)[C@H](CO)NC(=O)[C@H](Cc1ccc(O)cc1)NC(=O)[C@H](CC(=O)O)NC(=O)[C@H](CO)NC(=O)[C@@H](NC(=O)[C@H](Cc1ccccc1)NC(=O)[C@@H](NC(=O)CNC(=O)[C@H](CCC(=O)O)NC(=O)C(C)(C)NC(=O)[C@@H](N)Cc1ccc(O)cc1)[C@@H](C)O)[C@@H](C)O)[C@@H](C)CC)C(C)C)C(=O)N[C@@H](CC(N)=O)C(=O)N[C@@H](CCCCNC(=O)[C@@H](N)CCCCNC(=O)CC[C@H](NC(=O)CC[C@H](NC(=O)CC[C@H](NC(=O)CC[C@H](NC(=O)CC[C@H](NC(=O)CC[C@H](NC(=O)[C@H]1CC[C@H](CNC(=O)CCCCCCCCCCCCCCCCC(=O)O)CC1)C(=O)O)C(=O)O)C(=O)O)C(=O)O)C(=O)O)C(=O)O)C(=O)NC(C)(C)C(=O)N[C@H](C(=O)N[C@@H](CCCNC(=N)N)C(=O)N[C@@H](CCC(N)=O)C(=O)N[C@@H](CCCNC(=N)N)C(=O)N[C@@H](Cc1ccc(O)cc1)C(N)=O)[C@@H](C)O [Compound 137, Y-Aib-E-G-T-F-T-S-D-Y-S-I-Aib-L-E-K-Q-A-Q-Aib-A-F-V-R-H-L-I-N-K(1,3)-Aib-T-R-Q-R-Y-NH2.C18DA-TRX-gGlu-gGlu-gGlu-gGlu-gGlu-gGlu-eLys(1,2)] | 0.5 | 11.5 | 4300 | – | –
5 | CC[C@H](C)[C@H](NC(=O)[C@H](CC(C)C)NC(=O)[C@H](Cc1c[nH]cn1)NC(=O)[C@H](CCCNC(=N)N)NC(=O)[C@@H](NC(=O)[C@H](Cc1ccccc1)NC(=O)[C@H](C)NC(=O)C(C)(C)NC(=O)[C@H](CCC(N)=O)NC(=O)[C@H](C)NC(=O)[C@H](CCC(N)=O)NC(=O)[C@H](CCCCN)NC(=O)[C@H](CCC(=O)O)NC(=O)[C@H](CC(C)C)NC(=O)C(C)(C)NC(=O)[C@@H](NC(=O)[C@H](CO)NC(=O)[C@H](CC(C)C)NC(=O)[C@H](CC(=O)O)NC(=O)[C@H](CO)NC(=O)[C@@H](NC(=O)[C@H](Cc1ccccc1)NC(=O)[C@@H](NC(=O)CNC(=O)[C@H](CCC(=O)O)NC(=O)C(C)(C)NC(=O)[C@@H](N)Cc1ccc(O)cc1)[C@@H](C)O)[C@@H](C)O)[C@@H](C)CC)C(C)C)C(=O)N[C@@H](CC(N)=O)C(=O)N[C@@H](CCCCNC(=O)CC[C@H](NC(=O)[C@@H](N)CCCCNC(=O)CC[C@H](NC(=O)CC[C@H](NC(=O)CC[C@H](NC(=O)CC[C@H](NC(=O)CC[C@H](NC(=O)CCCCCCCCCCCCCCCCCCC(=O)O)C(=O)O)C(=O)O)C(=O)O)C(=O)O)C(=O)O)C(=O)O)C(=O)NC(C)(C)C(=O)N[C@H](C(=O)N[C@@H](CCCNC(=N)N)C(=O)N[C@@H](CCC(N)=O)C(=O)N[C@@H](CCCNC(=N)N)C(=O)N[C@@H](Cc1ccc(O)cc1)C(N)=O)[C@@H](C)O [Compound 60, Y-Aib-E-G-T-F-T-S-D-L-S-I-Aib-L-E-K-Q-A-Q-Aib-A-F-V-R-H-L-I-N-K(1,3)-Aib-T-R-Q-R-Y-NH2.C20DA-gGlu-gGlu-gGlu-gGlu-gGlu-eLys-gGlu(1,2)] | – | – | 9600 | 0.3 | 8
